Several values for one entry are separate records, joined by “and”; a condition that tells them apart may be missing. Equal entries are not always repeated. Numbers after ± are expanded uncertainties.
Assay: mn = molality of the nth substance listed, in mol/kg
Details: 100 kPa, Liquid; for viscosity: Capillary tube (Ostwald / Ubbelohde) method; for mass density: Vibrating tube method

C(=NCCN=Cc1ccccn1)c1ccccn1 [N,N'-bis(2-pyridinylmethylene)-1,2-ethanediamine] + CC#N
Details	mass density, 298.15 K	mass density, 303.15 K	mass density, 308.15 K	mass density, 313.15 K	viscosity, 298.15 K
m1 = 0.0396	–	–	–	–	0.3511 ± 0.0074 mPa·s
m1 = 0.0397	778.8 ± 3.9 kg/m3	770.6 ± 3.9 kg/m3	762.7 ± 3.8 kg/m3	754.02 ± 3.8 kg/m3	0.359 ± 0.0076 mPa·s
m1 = 0.0412	778.98 ± 3.9 kg/m3 and 778.99 ± 3.9 kg/m3	773.9 ± 3.9 kg/m3 and 773.55 ± 3.9 kg/m3	765.55 ± 3.8 kg/m3 and 766.66 ± 3.8 kg/m3	759.53 ± 3.8 kg/m3 and 758.9 ± 3.8 kg/m3	0.352 ± 0.0075 mPa·s and 0.368 ± 0.0078 mPa·s
m1 = 0.0707	781 ± 3.9 kg/m3	775.97 ± 3.9 kg/m3	767.82 ± 3.8 kg/m3	761.2 ± 3.8 kg/m3	0.372 ± 0.0079 mPa·s
m1 = 0.076	781.24 ± 3.9 kg/m3	772.52 ± 3.9 kg/m3	764.1 ± 3.8 kg/m3	756.48 ± 3.8 kg/m3	0.3695 ± 0.0078 mPa·s
m1 = 0.0794	781.36 ± 3.9 kg/m3	775.79 ± 3.9 kg/m3	769.83 ± 3.9 kg/m3	761.42 ± 3.8 kg/m3	0.367 ± 0.0078 mPa·s
m1 = 0.085	781.2 ± 3.9 kg/m3	776.45 ± 3.9 kg/m3	769.8 ± 3.9 kg/m3	762.5 ± 3.8 kg/m3	0.357 ± 0.0076 mPa·s
m1 = 0.1109	783.49 ± 3.9 kg/m3	778.35 ± 3.9 kg/m3	771.54 ± 3.9 kg/m3	764.87 ± 3.8 kg/m3	0.381 ± 0.0081 mPa·s
m1 = 0.1136	783.49 ± 3.9 kg/m3	778.33 ± 3.9 kg/m3	771.48 ± 3.9 kg/m3	764.85 ± 3.8 kg/m3	0.368 ± 0.0078 mPa·s
m1 = 0.1159	783.49 ± 3.9 kg/m3	775.25 ± 3.9 kg/m3	767.32 ± 3.8 kg/m3	759.62 ± 3.8 kg/m3	0.374 ± 0.0079 mPa·s
m1 = 0.1172	783.63 ± 3.9 kg/m3	777.74 ± 3.9 kg/m3	772.75 ± 3.9 kg/m3	767.66 ± 3.8 kg/m3	0.374 ± 0.0079 mPa·s
m1 = 0.1441	785.8 ± 3.9 kg/m3	780.11 ± 3.9 kg/m3	774.3 ± 3.9 kg/m3	767.8 ± 3.8 kg/m3	0.397 ± 0.0084 mPa·s
m1 = 0.1487	786.71 ± 3.9 kg/m3	778.7 ± 3.9 kg/m3	769.46 ± 3.9 kg/m3	761.79 ± 3.8 kg/m3	0.395 ± 0.0083 mPa·s
m1 = 0.1539	785.86 ± 3.9 kg/m3	780.33 ± 3.9 kg/m3	775.54 ± 3.9 kg/m3	770.79 ± 3.9 kg/m3	0.381 ± 0.0081 mPa·s
m1 = 0.1655	785.87 ± 3.9 kg/m3	780.09 ± 3.9 kg/m3	774.28 ± 3.9 kg/m3	767.87 ± 3.8 kg/m3	0.375 ± 0.0079 mPa·s
m1 = 0.396	779.08 ± 3.9 kg/m3	773.62 ± 3.9 kg/m3	766.62 ± 3.8 kg/m3	760.23 ± 3.8 kg/m3	–

From the NIST ThermoML archive (doi:10.1021/je501054c)
